#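 GI50 marks 50% less growth. TGI is the concentration that stops growth completely.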
# Columns and labels:
# Test in all cases: growth of human tumour cells (NCI), 384-well format
# EKVX NSCLC = test system: EKVX NSCLC
# RPMI-8226 leukemia = test system: RPMI-8226 leukemia
# DU-145 prostate = test system: DU-145 prostate
# CAKI-1 renal = test system: CAKI-1 renal
# HOP-62 NSCLC = test system: HOP-62 NSCLC
# NCI-H322M lung = test system: NCI-H322M lung
# SK-OV-3 ovarian = test system: SK-OV-3 ovarian
# NCI-H23 lung = test system: NCI-H23 lung
# ACHN renal = test system: ACHN renal
# MALME-3M melanoma = test system: MALME-3M melanoma
# SK-MEL-2 melanoma = test system: SK-MEL-2 melanoma
# SR leukemia = test system: SR leukemia
# NCI-H226 lung = test system: NCI-H226 lung
smiles,measurement,setting,value
C=CC(=O)N1CCN(CCCn2c(=O)c(-c3c(Cl)c(OC)cc(OC)c3Cl)cc3cnc(NC)nc32)CC1,GI50,EKVX NSCLC,5.95 µM
same,TGI,EKVX NSCLC,19.6 µM
same,GI50,RPMI-8226 leukemia,0.759 µM
same,TGI,RPMI-8226 leukemia,2.39 µM
same,GI50,DU-145 prostate,4.02 µM
same,TGI,DU-145 prostate,18.1 µM
same,GI50,CAKI-1 renal,0.478 µM
same,TGI,CAKI-1 renal,3.49 µM
same,GI50,HOP-62 NSCLC,3.06 µM
same,TGI,HOP-62 NSCLC,12.1 µM
same,GI50,NCI-H322M lung,5.16 µM
same,TGI,NCI-H322M lung,> 39.6 µM
same,GI50,SK-OV-3 ovarian,1.1 µM
same,TGI,SK-OV-3 ovarian,9.48 µM
same,GI50,NCI-H23 lung,3.72 µM
same,TGI,NCI-H23 lung,15.3 µM
same,GI50,ACHN renal,0.975 µM
same,TGI,ACHN renal,11.3 µM
same,GI50,MALME-3M melanoma,1.92 µM
same,TGI,MALME-3M melanoma,9.84 µM
same,GI50,SK-MEL-2 melanoma,1.7 µM
same,TGI,SK-MEL-2 melanoma,5.09 µM
same,GI50,SR leukemia,1.29 µM
same,TGI,SR leukemia,3.04 µM
same,TGI,NCI-H226 lung,11.8 µM

# Source: PubChem BioAssay (NCI)
